System: Hedgehog signaling pathway
Assay: Gli-Luc luciferase reporter gene assay in C3H10T1/2/Gli-Luc cells under Shh-N stimulation
Type: cell-based
Settings: Mus musculus, C3H 10T1/2, 24 h, luciferase RLU, read-out: biological activity: IC50 of the inhibitory activities of compounds on the hedgehog pathway
In short: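 C3H10T1/2 cells stably carrying a Gli-responsive luciferase reporter were stimulated with 30 nM Shh-N conditioned medium plus compound (7-point dilutions, duplicate) for 24 h at 37 °C. Luciferase luminescence read from lysates; IC50 by sigmoidal fit of RLU versus log concentration.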

COc1c(-c2ccc(N3C[C@@H](C)O[C@@H](C)C3)cc2)cnc2c(-c3ccc(S(C)(=O)=O)cc3Cl)cccc12 [Embodiment 103]
IC50: 50 to 100 nM

Cc1cn(-c2ccc(N3CC(C)N(C)C(C)C3)cc2)c(=O)c2cccc(-c3ccc(C#N)cc3)c12 (centres unmarked) [Embodiment 33, 4-(4-methyl-1-oxo-2-(4-(3,4,5-trimethylpiperazin-1-yl)phenyl)-1,2-dihydroisoquinolin-5-yl)benzonitrile]
IC50: 100 to 500 nM

COc1c(-c2ccc(N3CC(C)OC(C)C3)cc2)cnc2c(-c3ccc(C#N)cc3)cc(F)cc12 (centres unmarked) [Embodiment 136, 4-(3-(4-(2,6-dimethylmorpholino)phenyl)-6-fluoro-4-methoxyquinolin-8-yl) benzonitrile]
IC50: 50 to 100 nM

COC(=O)N1C(C)CN(c2ccc(-n3cc(C)c4c(-c5ccc(C#N)cc5)cccc4c3=O)cc2)CC1C (centres unmarked) [Embodiment 28]
IC50: ≤ 50 nM

COc1c(N2CCN(C(=O)Nc3cccc(C)c3)CC2)cnc2c(-c3ccc(C#N)cc3)cccc12 [Embodiment 211]
IC50: ≤ 50 nM

Cc1cn(-c2ccc(N3CC(C)CC(C)C3)cc2)c(=O)c2cccc(-c3ccc(C#N)cc3)c12 (centres unmarked) [Embodiment 3]
IC50: 100 to 500 nM

Cc1cn(-c2ccc(N3C[C@@H](C)O[C@@H](C)C3)cc2)c(=O)c2cccc(-c3ccc(C#N)s3)c12 [Embodiment 44]
IC50: 500 to 1000 nM

COc1c(N2CCN(C(=O)Cc3ccncc3)CC2)cnc2c(-c3ccc(C#N)cc3)cccc12 [Embodiment 207, 4-(4-methoxy-3-(4-(2-(pyridin-4-yl)acetyl)piperazin-1-yl)quinolin-8-yl)benzonitrile]
IC50: 100 to 500 nM

C[C@@H]1CN(c2ccc(-n3ccc4c(-c5ccc(C#N)cc5)cccc4c3=O)cn2)C[C@H](C)O1 [Embodiment 70, 4-(2-(6-(2,6-dimethylmorpholino-4-yl)pyridin-3-yl)-1-oxo-1,2-dihydroisoquinolin-5-yl)benzonitrile]
IC50: 500 to 1000 nM

COc1c(N2CCN(C(=O)NC3CCCCC3)CC2)cnc2c(-c3ccc(C#N)cc3)cccc12 [Embodiment 210]
IC50: ≤ 50 nM

COC(=O)c1c(-c2ccc(N3C[C@@H](C)O[C@@H](C)C3)cc2)cnc2c(-c3ccc(C#N)cc3)cccc12 [Embodiment 128, methyl 8-(4-cyanophenyl)-3-(4-((2S,6R)-2,6-dimethylmorpholino)phenyl)quinoline-4-carboxylate]
IC50: 500 to 1000 nM

Cc1cn(-c2ccc(N3CC(C)NC(C)C3)cc2)c(=O)c2cccc(-c3ccc(C#N)cc3)c12 (centres unmarked) [Embodiment 15]
IC50: 100 to 500 nM

COc1c(NC(=O)c2ccc(N3C[C@@H](C)O[C@@H](C)C3)nc2)cnc2c(-c3ccc(C#N)cc3)cccc12 [Embodiment 241, N-(8-(4-cyanophenyl)-4-methoxyquinolin-3-yl)-6-(2,6-dimethylmorpholino-4-yl) nicotinamide]
IC50: 100 to 500 nM

COc1c(-c2ccc(N3C[C@@H](C)O[C@@H](C)C3)cc2)cnc2c(-c3ccc(C#N)cc3)cc(Cl)cc12 [Embodiment 135, 4-(6-chloro-3-(4-((2S,6R)-2,6-dimethylmorpholino)phenyl)-4-methoxyquinolin-8-yl) benzonitrile]
IC50: 100 to 500 nM

COc1c(-c2ccc(N3C[C@@H](C)N(C(=O)C(C)O)[C@@H](C)C3)nc2)cnc2c(-c3ccc(C#N)cc3)cccc12 (some centres unmarked) [Embodiment 195]
IC50: 50 to 100 nM

CC1CN(c2ccc(N3C[C@@H](C)O[C@@H](C)C3)cc2)C(=O)c2cccc(-c3ccc(C#N)cc3)c21 (stereo partly drawn) [Embodiment 87, 4-(2-(4-((2S,6R)-2,6-dimethylmorpholino)phenyl)-4-methyl-1-oxo-1,2,3,4-tetrahydroisoquinolin-5-yl)benzonitrile]
IC50: 100 to 500 nM

CCC(=O)N1[C@H](C)CN(c2ccc(-c3cnc4c(-c5ccc(C#N)cc5)nccc4c3OC)cn2)C[C@@H]1C [Embodiment 149, 4-(3-(6-((3S,5R)-3,5-dimethyl-4-propionylpiperazizin-1-yl)pyridin-3-yl)-4-methoxy-1,7-naphthyridin-8-yl)benzonitrile]
IC50: ≤ 50 nM

CCC(=O)N1CCN(c2ccc(-n3cc(C)c4c(-c5ccc(C#N)cc5)cccc4c3=O)cc2)CC1c1ccccc1 (centres unmarked) [Embodiment 18]
IC50: 100 to 500 nM

C[C@@H]1CN(c2ccc(-n3ccc4c(-c5ccc(C#N)cc5)cccc4c3=O)cc2Br)C[C@H](C)O1 [Embodiment 79, 4-(2-(3-bromo-4-((2S,6R)-2,6-dimethylmorpholino)phenyl)-1-oxo-1,2-dihydroisoquinolin-5-yl)benzonitrile]
IC50: 500 to 1000 nM

Cc1cn(-c2ccc(N3CCN4C(=O)OCC4C3)cc2)c(=O)c2cccc(-c3ccc(C#N)cc3)c12 (centres unmarked) [Embodiment 42, 4-(4-methyl-1-oxo-2-(4-(3-oxotetrahydro-1H-oxazolo[3,4-a]pyrazin-7(3H)-yl)phenyl)-1,2-dihydroisoquinolin-5-yl)benzonitrile]
IC50: 100 to 500 nM

C[C@@H]1CN(c2ccc(-c3cnc4c(-c5ccc(C#N)cc5)cccc4c3S(C)(=O)=O)cc2)C[C@H](C)O1 [Embodiment 120, 4-(3-(4-((2S,6R)-2,6-dimethylmorpholino)phenyl)-4-(methylsulfonyl)quinolin-8-yl) benzonitrile]
IC50: 500 to 1000 nM

COc1c(-c2ccc(N3C[C@@H](C)O[C@@H](C)C3)cc2)cnc2c(-c3nc(C#N)cs3)cccc12 [Embodiment 115, 2-(3-(4-((2S,6R)-2,6-dimethylmorpholino)phenyl)-4-methoxyquinolin-8-yl)thiazole-4-carbonitrile]
IC50: 1000 to 5000 nM

COc1cccc(N2CCN(c3ccc(-n4cc(C)c5c(-c6ccc(C#N)cc6)cccc5c4=O)cc3)CC2(C)C)c1 [Embodiment 5]
IC50: 100 to 500 nM

COc1c(N2CCN(c3cnc(C(C)(C)O)cn3)CC2)cnc2c(-c3ccc(C#N)cc3)cccc12 [Embodiment 221]
IC50: ≤ 50 nM

Cc1cn(-c2ccc(N3C[C@@H](C)O[C@@H](C)C3)cc2)c(=O)c2ccnc(-c3ccc(C(F)(F)F)cc3)c12 [Embodiment 82]
IC50: 1000 to 5000 nM

COc1c(-c2ccc(N3C[C@@H](C)O[C@@H](C)C3)cc2)cnc2c(-c3ccc(-c4ncc[nH]4)cc3)cccc12 [Embodiment 111]
IC50: 100 to 500 nM

Cc1cn(-c2ccc(N3CCOC(C)(C)C3)cc2)c(=O)c2cccc(-c3ccc(C#N)cc3)c12 [Embodiment 4]
IC50: 100 to 500 nM

Cc1cn(-c2ccc(N3CC(C)N(C(=O)C4CC4)C(C)C3)cc2)c(=O)c2cccc(-c3ccc(C#N)cc3)c12 (centres unmarked) [Embodiment 26]
IC50: 50 to 100 nM

COc1c(N2CCN(C(=O)CC3CCOCC3)CC2)cnc2c(-c3ccc(C#N)cc3)cccc12 [Embodiment 216]
IC50: 100 to 500 nM

Cc1cn(-c2ccc(N3C[C@@H](C)O[C@@H](C)C3)cc2)c(=O)c2cccc(-c3ccc(C#N)c(F)c3)c12 [Embodiment 59]
IC50: 500 to 1000 nM

COc1c(-c2ccc(N3C[C@@H](C)N(C(=O)C(C)(F)F)[C@@H](C)C3)nc2)cnc2c(-c3ccc(C#N)cc3)cccc12 [Embodiment 194]
IC50: ≤ 50 nM

CCC(=O)N1CCN(c2ccc(-n3cc(C)c4c(-c5ccc(C#N)cc5)cccc4c3=O)cc2)CC1C (centres unmarked) [Embodiment 17]
IC50: 50 to 100 nM

Cc1nc(N2C[C@@H](C)O[C@@H](C)C2)ccc1-c1cnc2c(-c3ccc(C#N)cc3)cccc2c1C1CC1 [Embodiment 257, 4-(4-cyclopropyl-3-(6-((2S,6R)-2,6-dimethylmorpholino)-2-methylpyridin-3-yl)quinolin-8-yl)benzonitrile]
IC50: ≤ 50 nM

COc1c(-c2ccc(N3C[C@@H](C)N(C(=O)c4ncc[nH]4)[C@@H](C)C3)cc2)cnc2c(-c3ccc(C#N)cc3)cccc12 [Embodiment 187]
IC50: ≤ 50 nM

Cc1cn(-c2ccc(N3C[C@@H](C)O[C@@H](C)C3)nc2)c(=O)c2cccc(-c3ccc(C(F)(F)F)cc3)c12 [Embodiment 67]
IC50: 500 to 1000 nM

COc1c(-c2ccc(N3C[C@@H](C)O[C@@H](C)C3)nc2)cnc2c(-c3ccnn3C)cccc12 [Embodiment 165]
IC50: 100 to 500 nM

COc1c(-c2ccc(N3C[C@@H](C)O[C@@H](C)C3)cc2)cnc2c(-c3cnc(N(C)C)nc3)cccc12 [Embodiment 110]
IC50: 100 to 500 nM

CCC(=O)N1[C@H](C)CN(c2ccc(-c3cnc4c(-c5ccc(C#N)cc5)cccc4c3O)cn2)C[C@@H]1C [Embodiment 140, 4-(3-(6-((3S,5R)-3,5-dimethyl-4-propionylpiperazin-1-yl)pyridin-3-yl)-4-hydroxyquinolin-8-yl)benzonitrile]
IC50: 500 to 1000 nM

COc1c(N2CCN(S(=O)(=O)C(C)C)CC2)cnc2c(-c3ccc(C#N)cc3)cccc12 [Embodiment 249, 4-(4-methoxy-3-(4-(propane-2-sulfonyl)piperazin-1-yl)-quinolin-8-yl)benzonitrile]
IC50: ≤ 50 nM

Cc1cn(-c2ccc(N3CC(C)N(C(=O)c4ccccc4)C(C)C3)cc2)c(=O)c2cccc(-c3ccc(C#N)cc3)c12 (centres unmarked) [Embodiment 27]
IC50: ≤ 50 nM

Cc1cn(-c2ccc(N3CC(C)N(CC(C)(C)O)C(C)C3)cc2)c(=O)c2cccc(-c3ccc(C#N)cc3)c12 (centres unmarked) [Embodiment 37]
IC50: 100 to 500 nM

Cc1cn(-c2ccc(N3C[C@@H](C)O[C@@H](C)C3)nc2)c(=O)c2cccc(-c3ccc(C#N)cc3)c12 [Embodiment 66]
IC50: 500 to 1000 nM

COc1c(N2CCC(N3C[C@@H](C)O[C@@H](C)C3)C2)cnc2c(-c3ccc(C#N)cc3)cccc12 (some centres unmarked) [Embodiment 229, 4-(3-(3-(2,6-dimethylmorpholino)pyrrolidin-1-yl)-4-methoxyquinolin-8-yl) benzonitrile]
IC50: 100 to 500 nM

COc1c(-c2ccc(N3C[C@@H](C)O[C@@H](C)C3)cc2)cnc2c(-c3ccncc3)cccc12 [Embodiment 97]
IC50: 100 to 500 nM

COc1c(-c2ccc(N3C[C@@H](C)O[C@@H](C)C3)cc2)cnc2c(-c3ccc(C#N)cc3)nccc12 [Embodiment 148, 4-(3-(4-((2S,6R)-2,6-dimethylmorpholino)phenyl)-4-methoxy-1,7-naphthyridin-8-yl) benzonitrile]
IC50: 50 to 100 nM

C[C@@H]1CN(c2ccc(-c3cnc4c(-c5ccc(C#N)cc5)cccc4c3C3CCC3)cn2)C[C@H](C)O1 [Embodiment 259, 4-(4-cyclobutyl-3-(6-((2S,6R)-2,6-dimethylmorpholino)pyridin-3-yl)quinolin-8-yl) benzonitrile]
IC50: 50 to 100 nM

CCc1c(-c2ccc(N3C[C@@H](C)O[C@@H](C)C3)nc2)cnc2c(-c3ccc(C#N)cc3)cccc12 [Embodiment 133]
IC50: ≤ 50 nM

— patent US9938292B2 (GUANGDONG ZHONGSHENG PHARMACEUTICAL CO., LTD, priority 2014, dated 2018)
